In patent publication US20210038559A1, “CANNABINOIDS AND DERIVATIVES FOR PROMOTING IMMUNOGENICITY OF TUMOR AND INFECTED CELLS” (priority 2018, published 2021):

Experiments:
[1] = test system: MHC class I expression on COLO 205 cells; assay: MHC class I expression on COLO 205 cells, 24 hours, flow cytometry (W6/32); settings: for MFI: W6/32 staining; for increase in MHC class I expression: 24 hours, relative to non-treated cells
Method: FIG. 2A-2F. […] Cells were treated for 24 hours and cell surface MHC class I expression was measured by flow cytometry.
Cannabigerol was also tested for its capacity to induce MHC class I expression in a human colorectal carcinoma cell line, COLO 205. The cells were treated with either 25 μM or 50 μM cannabigerol for 24 hours. Fluorophor (Alexa Fluor 488)-conjugated W6/32 antibody (Thermo Fisher) was used in a flow cytometry assay to quantitate MHC class I expression. […] Cannabigerol is only one of many cannabinoid-like molecules with potential biopharmaceutical activity. […] COLO 205 cells were treated with up to 40 μM of the cannabinoids 1-5 presented in Tables 1 and 2 and evaluated for cell surface MHC class I expression as described above for cannabigerol.

[2] = test system: CD8+ T cells from OT1 mice co-cultured with A9 cells; assay: OT1 CD8+ T cell proliferation (CFSE) in co-culture with […]-loaded A9 cells; format: cell-based, mouse
Method: FIG. 8. A proliferation experiment using CD8^+ T cells from […]-primed OT1 mice in response to […] peptide presented on MHC class I of A9 cells. A9 cells were treated with 0.055 μM of Cannabigerol, 5.832×10^−6 nM of IFN gamma positive control. The negative control is named “CFSE and […] CD8^+ T cells”. T cells were labeled with CFSE proliferation dye, which is reduced within the progeny cells as the generations progress.
FIG. 9 MHC Class I expression of A9 cells associated with CD8^+ T cells from […]-primed OT. A9 cells were treated with 0.055 μM of Cannabigerol, or 5.832×10^4 nM of IFN gamma.
A cytolytic assay was performed as follows. A9 cells (1×10^6) were plated onto a 6 well plate in two mL of RPMI media (Advanced RPMI-1640 Medium (Gibco), 100 U/mL of Penicillin-Streptomycin (P+S) (Thermofisher), 1% L-Glutamine (Gibco), and 10% FBS). A9 cells were treated with either Cannabigerol 0.055 μM, 5.832×10^4 nM IFN gamma, or 1% DMSO vehicle. After 24 hours, […] OVA Peptide ([…]) (Genscript), was added to the A9 cells. Following an additional 24 hours, CD8^+ T cells were collected from OT1 mouse spleens. […] An extra well of untreated A9 cells was counted and used as a standard count. CD8^+ T cells were counted and then treated with CFSE (Biolegend) per manufacture protocol, before being co-cultured with A9 cells to a 1:1 ratio or a 1:5 ratio. […]

[3] = test system: A9 cells, soluble mouse proteins; assay: Cytokine secretion profile in Cannabigerol treated A9 cells (Proteome Profiler Mouse XL cytokine array); format: cell-based; settings: 0.055 μM, 48 hours, versus DMSO
Method: FIG. 10A-10E show the cytokines and other markers that have increased or decreased expression after treatment with cannabinoids, as compared to interferon gamma. FIG. 10A) Inflammatory markers; FIG. 10B) Cell growth markers; FIG. 10C) Leukocyte migration markers; FIG. 10D) Cell growth and differentiation markers; FIG. 10E) summary of markers.
Cannabigerol and IFN gamma were dissolved in 1% Dimethyl Sulfoxide (DMSO) (Sigma) in media (1% DMSO). 1×10^6 A9 cells were plated onto a 6 well plate in two mL of DMEM media. Twenty-four hours after seeding, cells were cultured at the optimum concentrations of Cannabigerol 0.055 μM or 5.832×10^−6 nM IFN gamma or 1% DMSO vehicle for 48 hours. Relative expression levels of 111 soluble mouse proteins including cytokines, chemokines and growth factors were evaluated using the Proteome Profiler Mouse XL cytokine array kit (R&D System, ARY028) following the manufacturer's instructions. Spot densities on the array film were detected and quantified using Image J analysis software Image J protein analyzer add-on on a scanned version of the film. Quantification of the spot intensity in the arrays was conducted with background subtraction in ImageJ. To determine fold change, the treatment values of IFN gamma microarrays were divided by the DMSO negative control values of the concurring spots. A value of 1 was subtracted from the absolute value of this fold change, to correct the value of DMSO to “0”. Experiment was done in technical replicates.
There also was an increase in VEGFA. Additionally, there was downregulation of IL-10, and IL-11. There also was a decrease in the production of IGFBP1 and angiopoietin-1,

[4] = test system: MHC class I expression, metastatic mouse tumor cell line; assay: Indirect screen for compounds that increase MHC class I expression in a metastatic mouse tumor cell line; format: cell-based
Text: An assay has been developed to indirectly screen for compounds that increase MHC class I expression in a metastatic mouse tumor cell line (U.S. patent Ser. No. 14/548,726, Jefferies et. al., published 28 May 2015). This assay identified numerous compounds that increased MHC expression. […] In addition, some other cannabinoids induce expression of MHC class I on tumor cells.

SMILES: CCCCCc1cc(O)c(C/C=C(\C)CCC=C(C)C)c(O)c1 [Example 1, 2-[(2E)-3,7-dimethyl-2,6-octadien-1-yl]-5-pentyl-1,3-benzenediol]
- MFI ([1]; COLO 205, 10 μM): 125
- MFI ([1]; COLO 205, 20 μM): 130
- increase in MHC class I expression ([1]; COLO 205, 25 μM): 25%
- MFI ([1]; COLO 205, 30 μM): 130
- MFI ([1]; COLO 205, 40 μM): 164
- increase in MHC class I expression ([1]; COLO 205, 50 μM): 2 fold
- Cell viability ([1]; COLO 205, all treatment conditions (25 μM or 50 μM, 24 hours)): > 95%
- fold induction at 10 µM ([1]; Homo sapiens, COLO 205): 1.03
- fold induction at 20 µM ([1]; Homo sapiens, COLO 205): 1.07
- fold induction at 30 µM ([1]; Homo sapiens, COLO 205): 1.07
- fold induction at 40 µM ([1]; Homo sapiens, COLO 205): 1.36
- MHC class I on the A9 cells associated with the OT1 T cells ([2]; A9 cells treated with 0.055 μM): increase
- proliferation of OT1 CD8+ T cells ([2]; A9 cells treated with 0.055 μM for 48 hours prior to co-culture): increased proliferation
- FGF-21 expression [3]: upregulated
- IL-10 expression [3]: downregulation
- IL-11 expression [3]: downregulation
- IL-13 expression [3]: upregulated
- VEGFA expression [3]: increase
- production of IGFBP1 [3]: decrease
- production of angiopoietin-1 [3]: decrease
- activity in the MHC class I screening assay [4]: significant activity
